Reference: ChEMBL document CHEMBL3608267, “Identification of dialkyl diacetylene diols with potent cancer chemopreventive activity” (Bioorg Med Chem Lett, 2015)

How the values were obtained:
[1] = molecular target: NAD(P)H dehydrogenase [quinone] 1 (Mus musculus) (UniProt Q64669); experiment: Induction of NQO1 in mouse Hepa-1c1c7 cells assessed as drug concentration required to double induction by quinone reductase assay; type: cell-based
[2] = Chemopreventive index, ratio of IC50 for mouse Hepa-1c1c7 cells to drug concentration required to double induction of NQO1 in mouse Hepa-1c1c7 cells
[3] = Toxicity against mouse Hepa-1c1c7 cells assessed as inhibition of cell proliferation; type: cell-based

Chain of NAD(P)H dehydrogenase [quinone] 1 (Mus musculus) (Q64669 whole entry): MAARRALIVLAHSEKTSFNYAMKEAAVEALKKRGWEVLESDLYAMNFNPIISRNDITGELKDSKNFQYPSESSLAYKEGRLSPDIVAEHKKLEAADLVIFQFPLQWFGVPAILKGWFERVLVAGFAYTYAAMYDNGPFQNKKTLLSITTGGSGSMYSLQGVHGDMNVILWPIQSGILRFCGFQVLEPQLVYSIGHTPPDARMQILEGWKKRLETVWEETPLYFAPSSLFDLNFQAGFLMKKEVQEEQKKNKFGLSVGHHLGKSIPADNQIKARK

SMILES	CD [1]	Ratio [2]	IC50 [3]
CCCCCC(O)C#CC#CCO (racemic)	4.7 µM	>11	> 50 µM
CCCCCCCCCC(O)C#CC#CC(O)C1CCCCC1 (stereo not drawn)	11 µM	4	44 µM
CCCCC[C@@H](O)C#CC#CCO	2.3 µM	>43	> 100 µM
CCCCC[C@H](O)C#CC#CCO	3.2 µM	>31	> 100 µM
CCCCC[C@@H](O)C#CC#C[C@H](O)CCCCC	0.6 µM	20	12 µM
CC(C)CC(O)C#CC#CC(O)C1CCCCC1 (stereo not drawn)	5.6 µM	>8.9	> 50 µM
CCCCCCCCCC(O)C#CC#CC(O)CCCCCCCCC (stereo not drawn)	26 µM	1	26 µM
CCCCCC(O)C#CC#CC(O)CC(C)C (stereo not drawn)	1.3 µM	32	41 µM
CCCCCCCCCC(O)C#CC#CC(O)CC(C)C (stereo not drawn)	10 µM	>5	> 50 µM
CCCC(O)C#CC#CCO (stereo not drawn)	6 µM	>8.3	> 50 µM
CCCCC[C@H](O)C#CC#C[C@H](O)CCCCC	4.7 µM	14	68 µM
CCCCCC(O)C#CC#CC(O)CCCCC (mixture of isomers)	3.1 µM	>16	> 50 µM
C=CCCCCC/C=C\[C@@H](O)C#CC#C[C@@H](O)[C@H](C)O	8.2 µM	>6.1	> 50 µM
CCCCC[C@H](O)C#CC#C[C@@H](O)CCCCC	2.6 µM	18	47 µM
CCCCCCCCCC(O)C#CC#CC(O)CCCCC (stereo not drawn)	2.6 µM	4.6	12 µM
CCCCCCCCCC(O)C#CC#CC(O)CCC (stereo not drawn)	4.2 µM	7.2	30 µM
CCCCCC(O)C#CC#CC(O)CCC (stereo not drawn)	0.8 µM	24	19 µM
CCCCCC(O)C#CC#CC(O)C1CCCCC1 (mixture of isomers)	3.2 µM	>16	> 50 µM
CCCC(O)C#CC#CC(O)C1CCCCC1 (stereo not drawn)	6.2 µM	>8.1	> 50 µM
OC(C#CC#CC(O)C1CCCCC1)C1CCCCC1 (stereo not drawn)	8.4 µM	>6	> 50 µM
C[S+]([O-])CCCCN=C=S (stereo not drawn) [SULFORAPHANE]	0.4 µM	27	11 µM
